Source: patent US8674063B2, “Chimerical peptidic molecules with antiviral properties against the viruses of the Flaviviridae family” (Centro de Ingenieria Genetica y Biotecnologia, priority 2006, dated 2014)

How the values were obtained:
Type in all cases: cell-based
[1] = Cytotoxic effect (CTE) of peptides on Vero cell monolayer; conditions: Vero cell monolayer; Vero cells; read-out: CTE: peptide concentration causing damage to 50% of the monolayer
Vero cells = test: as above; conditions: at the assayed conditions
[2] = test system: dengue 2 virus (DV2, strain S16803); test: Plaque reduction neutralization assay (PRNT) in Vero cells, dengue 2 virus; conditions: for antiviral activity (inhibition of infection by DV2, plaque reduction), in words: Vero cells
Protocol: Vero cells were grown in 24-well plates to approximately 90% confluence, and washed twice with MEM medium without FCS. Peptide dilutions were added according to the particular assay and incubated typically during 1 h at 37° C. After the incubation, the virus was added at a multiplicity of infection of 0.1, followed by a subsequent incubation for 1 hour at 37 C. In certain experiments the peptides were added simultaneously with the virus (without preincubation) or the peptide preincubation time was modified. At the end of the second incubation, the unbound virus was eliminated by washing, and the cells were incubated for 5 days at 37 C in high density medium (MEM supplemented with non essential amino acids, 1% FCS, 1% carboxymethylcellulose) in order to propitiate the appearance of lytic plaques. The plaques were visualized by staining with 0.1% Naphtol Blue Black in 0.15 Mol/L sodium acetate. Two replicates were used per experimental point in each assay, and three independent determinations were performed. The inhibition percentage was calculated according to the expression: […]
In order to determine the role of the cell penetrating peptide and the ER retention signal on the antiviral activity of peptides of the present invention we tested peptides No 1, 2, 3 and 4 of table 1 for inhibition of the viral infection by VD2 in Vero cells, using the assay described in the example 2.

Row | Compound | CC50 [1] [µM] | antiviral activity (inhibition of infection by DV2, plaque reduction), in words [2] | further results
1 | CC[C@H](C)[C@H](NC(=O)[C@H](CO)NC(=O)[C@H](CC(C)C)NC(=O)[C@@H](NC(=O)[C@@H]1CCCN1C(=O)[C@H](CO)NC(=O)[C@H](CO)NC(=O)CNC(=O)CNC(=O)CNC(=O)[C@H](CCC(N)=O)NC(=O)[C@@H]1CCCN1C(=O)[C@@H]1CCCN1C(=O)[C@H](CCCNC(=N)N)NC(=O)[C@H](CCCNC(=N)N)NC(=O)[C@H](CCCNC(=N)N)NC(=O)[C@H](CCC(N)=O)NC(=O)[C@H](CCCNC(=N)N)NC(=O)[C@H](CCCNC(=N)N)NC(=O)[C@H](CCCCN)NC(=O)[C@H](CCCCN)NC(=O)[C@H](CCCNC(=N)N)NC(=O)CNC(=O)[C@@H](N)Cc1ccc(O)cc1)[C@@H](C)CC)C(=O)N[C@H](C(=O)N[C@H](C(=O)N[C@@H](CO)C(=O)N[C@@H](CCC(=O)O)C(=O)N[C@@H](CC(=O)O)C(=O)NCC(=O)NCC(=O)NCC(=O)N[C@@H](CCCCN)C(=O)N[C@@H](CC(=O)O)C(=O)N[C@@H](CCC(=O)O)C(=O)N[C@@H](CC(C)C)C(=O)O)[C@@H](C)CC)[C@@H](C)O [NS2Bden2 + TAT + KDEL] | > 150 |  | 
2 | CC[C@H](C)[C@H](NC(=O)[C@H](CO)NC(=O)[C@H](CC(C)C)NC(=O)[C@@H](NC(=O)[C@@H]1CCCN1C(=O)[C@H](CO)NC(=O)[C@H](CO)NC(=O)CNC(=O)CNC(=O)CNC(=O)[C@H](CCC(N)=O)NC(=O)[C@@H]1CCCN1C(=O)[C@@H]1CCCN1C(=O)[C@H](CCCNC(=N)N)NC(=O)[C@H](CCCNC(=N)N)NC(=O)[C@H](CCCNC(=N)N)NC(=O)[C@H](CCC(N)=O)NC(=O)[C@H](CCCNC(=N)N)NC(=O)[C@H](CCCNC(=N)N)NC(=O)[C@H](CCCCN)NC(=O)[C@H](CCCCN)NC(=O)[C@H](CCCNC(=N)N)NC(=O)CNC(=O)[C@@H](N)Cc1ccc(O)cc1)[C@@H](C)CC)C(=O)N[C@H](C(=O)N[C@H](C(=O)N[C@@H](CO)C(=O)N[C@@H](CCC(=O)O)C(=O)N[C@@H](CC(=O)O)C(=O)NCC(N)=O)[C@@H](C)CC)[C@@H](C)O [NS2Bden2+TAT] | 150 |  | 
3 | CC[C@H](C)[C@H](NC(=O)[C@H](CCCCN)NC(=O)[C@@H](NC(=O)[C@H](CCC(N)=O)NC(=O)[C@@H](N)CCCNC(=N)N)[C@@H](C)CC)C(=O)N[C@@H](Cc1c[nH]c2ccccc12)C(=O)N[C@@H](Cc1ccccc1)C(=O)N[C@@H](CCC(N)=O)C(=O)N[C@@H](CC(N)=O)C(=O)N[C@@H](CCCNC(=N)N)C(=O)N[C@@H](CCCNC(=N)N)C(=O)N[C@@H](CCSC)C(=O)N[C@@H](CCCCN)C(=O)N[C@@H](Cc1c[nH]c2ccccc12)C(=O)N[C@@H](CCCCN)C(=O)N[C@@H](CCCCN)C(=O)NCC(=O)NCC(=O)NCC(=O)N[C@@H](CO)C(=O)N[C@@H](CO)C(=O)N1CCC[C@H]1C(=O)N[C@H](C(=O)N[C@@H](CC(C)C)C(=O)N[C@@H](CO)C(=O)N[C@H](C(=O)N[C@H](C(=O)N[C@H](C(=O)N[C@@H](CO)C(=O)N[C@@H](CCC(=O)O)C(=O)N[C@@H](CC(=O)O)C(=O)NCC(N)=O)[C@@H](C)CC)[C@@H](C)O)[C@@H](C)CC)[C@@H](C)CC [NS2Bden2-pP2] | 50 |  | toxicity on the cells, in words (Vero cells): significant cytotoxicity
4 | CC[C@H](C)[C@H](NC(=O)[C@H](CO)NC(=O)[C@H](CC(C)C)NC(=O)[C@@H](NC(=O)[C@@H]1CCCN1C(=O)[C@H](CO)NC(=O)[C@H](CO)NC(=O)CNC(=O)CNC(=O)CNC(=O)[C@H](CCCNC(=N)N)NC(=O)[C@H](CCCNC(=N)N)NC(=O)[C@H](CCCNC(=N)N)NC(=O)[C@H](CCCNC(=N)N)NC(=O)[C@H](CCCNC(=N)N)NC(=O)[C@H](CCCNC(=N)N)NC(=O)[C@H](CCCNC(=N)N)NC(=O)[C@H](CCCNC(=N)N)NC(=O)[C@H](CCCNC(=N)N)NC(=O)[C@@H](N)CCCNC(=N)N)[C@@H](C)CC)C(=O)N[C@H](C(=O)N[C@H](C(=O)N[C@@H](CO)C(=O)N[C@@H](CCC(=O)O)C(=O)N[C@@H](CC(=O)O)C(=O)NCC(N)=O)[C@@H](C)CC)[C@@H](C)O [NS2Bden2-pRR] | > 50 |  | 
5 | TAT peptide: YGRKKRRQRRRPPQ; SEQ ID NO 64; cell penetrating TAT peptide, negative control (Description of the Artificial Sequence chimerical peptide) [reference compound] |  | did not show antiviral activity | number of plaques in presence of peptide ([2]; DV2, Vero cells, FIG. 2B): increase in the number of plaques
6 | segment [I] of peptide NS2Bden2+TAT (SSPILSITISEDG), lacks the cell penetrating segment |  | does not inhibit | antiviral activity (inhibition of infection by DV2, plaque reduction), in words ([2]; listed as NS3pro protease activation inhibitor segment [I]): does not show antiviral activity in vitro
